In US8642621B2, “(4-phenyl-piperidin-1-yl)-[5-(1H-pyrazol-4-yl)-thiophen-3-yl]-methanone compounds and their use” (The University Of Edinburgh, priority 2009, dated 2014):
Like-named read-outs stand apart in the source and are kept apart here.

Key:
human 11β-HSD1 enzyme = molecular target: T1, human 11β-HSD1 enzyme (Homo sapiens, UniProt P28845); assay: Cellular in vitro 11β-HSD1 enzyme inhibition assay (SPA, HEK293/11β-HSD1 cells); assay type: cell-based
T1 construct: stably transfected with a construct containing the full-length gene coding for the human 11β-HSD1 enzyme; expressed in transfected cells; HEK293/11β-HSD1 cells)
T1 sequence (P28845 whole entry): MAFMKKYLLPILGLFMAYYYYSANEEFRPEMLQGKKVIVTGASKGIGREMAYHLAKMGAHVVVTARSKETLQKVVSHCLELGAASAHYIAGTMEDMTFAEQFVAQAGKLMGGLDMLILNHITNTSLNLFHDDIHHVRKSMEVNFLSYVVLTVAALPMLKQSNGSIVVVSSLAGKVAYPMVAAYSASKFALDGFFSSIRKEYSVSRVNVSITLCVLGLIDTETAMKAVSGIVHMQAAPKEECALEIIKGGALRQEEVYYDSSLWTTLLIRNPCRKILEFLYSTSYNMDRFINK
Protocol: Cellular In Vitro 11β-HSD1 Enzyme Inhibition Assay
Compounds were assessed by a Scintillation Proximity Assay (SPA) performed according to the following protocol:
HEK293 cells were stably transfected with a construct containing the full-length gene coding for the human 11β-HSD1 enzyme to create HEK293/11β-HSD1 cells. Cells were routinely cultured in DMEM containing 10% calf foetal serum, 1% glutamine, and 1% penicillin and streptomycin. Prior to assay, cells were plated at 2×10^4 cells/well in 96-well poly-D-Lys coated flat-bottomed microplates and incubated in 5% CO2, 95% O2 at 37° C. for 24 hours. The media in each well was removed immediately before assay.
Compounds to be tested were dissolved in DMSO at 10 mM and serially diluted into water containing 10% DMSO. Diluted compounds at a volume of 10 μL were added to wells of a 96-well V-bottomed microplate. A solution of DMEM, 1% glutamine, 1% penicillin and streptomycin, and 22 nM tritiated cortisone was prepared and 90 μL added to each well of the assay plate. This solution (100 μL/well) was transferred to the plate containing the cells. The plate was then incubated in 5% CO2, 95% O2 at 37° C. for 2 hours.
Following this incubation, 50 μL of the assay solution was transferred to each well of a 96-well scintillation microplate. A mixture consisting of anti-mouse YSi SPA beads, pre-mixed with anti-cortisol antibody in assay buffer (50 mM Tris.HCl, pH 7.0; 300 mM NaCl; 1 mM EDTA, 5% glycerol) was prepared and 50 μL added to each well of the scintillation microplate. An adhesive strip was applied to the microplate and the plate gently shaken for at least 2 hours at room temperature, and then spun briefly on a low speed centrifuge. The plate was read on a scintillation counter suitable for 96-well microplates. For the calculation of percentage inhibition, a series of wells were added to the plate that represented the assay maximum and the assay minimum: one set that contained substrate without cells (minimum) and another set that contained substrate and cells without any compound (maximum).
The calculation of median inhibitory concentration (IC50) values for the compounds was performed using GraphPad Prism® software. Dose-response curves for each compound were plotted as fractional inhibition and data fitted to the four parameter logistic equation.

[1] = In vitro human liver microsomal stability assay; assay type: in vitro ADME; conditions: human liver microsomes
Protocol: In Vitro Human Liver Microsomal Stability Assay
To predict in vivo metabolism of compounds, the stability of compounds incubated with human liver microsomes in vitro was determined. Human liver microsome preparations were stored at −80° C. and thawed on ice prior to use. The thawed microsomes were diluted to a concentration of 2 mg/mL in 50 mM sodium phosphate, pH 7.4. Reference and test compounds were prepared as 10 mM stocks in 100% DMSO and diluted to 1 mM in acetonitrile before use. Each compound was tested in triplicate as follows:
4 μL of test or reference compound was added to a well of a 24-well microplate and 0.5 mL of 4 mM NADPH added. The plate was then transferred to a shaker for 10 minutes at room temperature. 30 μL of the compound/NADPH solution was transferred to the well of a 96-well microplate and incubated at 37° C. for 5 minutes. 30 μL of human liver microsomes (pre-incubated at 37° C. for 5 minutes) was added to the well containing the compound/NADPH solution and the plate incubated for the selected period of time (typically 0 or 30 minutes). The reaction was stopped by adding 60 μL of ice cold […] trichloroacetic acid. The plate was centrifuged at 1000 rpm for 5 minutes at room temperature and the supernatant transferred to the well of a new 96-well v-bottomed microplate for mass spectrometric analysis.
Samples were analyzed by TSQ Quantum Discovery Tandem Mass Spectrometer and Surveyor Liquid Chromatogram (Thermo, Hemel-Hempstead, UK). 10 μL of each sample was injected in a mobile phase consisting of 60%:40% methanol:5 mM ammonium acetate at a flow rate of 0.5 mL/minute. The column used was a BDS hypersil, C18, 50×2.1 mm with a 5 μm particle size.
Each compound was tuned with a spray voltage of 3000 V and a capillary temperature of 300° C. and values for tube lens, CID and product ions were determined.
The peak area for each compound was measured in triplicate for the 0 and 30 minute samples and the average of each was reported. The percentage remaining after 30 minutes was calculated as the average peak area of the sample after 30 minutes divided by the average peak area at 0 minutes. The RSD was 10% or lower for each compound.

human 11β-HSD2 = molecular target: T2, human 11β-HSD2 (Homo sapiens, UniProt P80365); assay: Cellular in vitro 11β-HSD2 enzyme inhibition assay (CHO cells); assay type: cell-based; conditions: CHO cells stably transfected with human 11β-HSD2; Table 1
T2 construct: CHO cells stably transfected with the full-length gene coding for human 11β-HSD2 were used; expressed in transfected cells
T2 sequence (P80365 1-405): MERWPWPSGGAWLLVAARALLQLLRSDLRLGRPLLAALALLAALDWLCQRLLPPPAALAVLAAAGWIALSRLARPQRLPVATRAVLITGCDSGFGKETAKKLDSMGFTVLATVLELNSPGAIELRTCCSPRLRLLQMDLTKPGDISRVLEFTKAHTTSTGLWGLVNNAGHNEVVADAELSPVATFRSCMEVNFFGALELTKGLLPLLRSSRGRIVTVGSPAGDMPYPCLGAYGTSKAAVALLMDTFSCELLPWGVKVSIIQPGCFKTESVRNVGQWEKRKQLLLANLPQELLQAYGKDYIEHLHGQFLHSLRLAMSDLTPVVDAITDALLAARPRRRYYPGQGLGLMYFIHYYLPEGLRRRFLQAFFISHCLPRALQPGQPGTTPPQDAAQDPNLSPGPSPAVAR
Protocol: Cellular In Vitro 11β-HSD2 Enzyme Inhibition Assay
Assays were carried out in 96-well microplates containing 1×10^5 cells/well. Controls and compounds were plated as above, so that the final DMSO concentration in each well was 1%. To initiate the assay, 90 μL of a solution of HAMS F-12 medium containing 1% glutamine, 1% penicillin and streptomycin, and 22 nM tritiated cortisol was added to each well of the assay plate. The plate was then incubated in 5% CO2, 95% O2 at 37° C. for 16 hours.
The assay solutions were transferred to glass tubes and 20 μL ethyl acetate added to each tube. Each tube was vortexed thoroughly and the upper layer containing the tritiated steroid transferred to a fresh glass tube. The solvent was evaporated by placing the tubes in a heating block at 65° C. under a stream of Nitrogen gas. 20 μL ethanol was added to each of the dried samples and vortexed briefly. Each sample was applied to a silica TLC plate and the plate dried. The plate was placed vertically in a glass tank containing 92% chloroform:8% ethanol and the solvent allowed to rise up the plate. The plate was dried, placed in an imaging cassette, and overlayed with a tritium imaging plate for 1-2 days. The amount of enzyme inhibition in each sample was determined by measuring the intensity of the substrate and product spots using a phosphoimager.
IC50 values for inhibitors were determined as described for 11β-HSD1.

[2] = read-out: IC50 for 11β-HSD1 (HEK293)
[3] = HEK293 cells stably transfected with human 11β-HSD1, Table 1, read-out: IC50 for 11β-HSD1 (HEK293)

Row | Structure (SMILES) | IC50 (human 11β-HSD1 enzyme; [2]) [nM] | also measured
1 | O=C(c1csc(-c2cn[nH]c2)c1)N1CCC(O)(c2cccc(C(F)(F)F)c2)CC1 [AA-03] | 500 to 1000 | –
2 | O=C(c1csc(-c2cn[nH]c2)c1)N1CCC(O)(c2ccc(F)cc2)CC1 [AA-05] | ≤ 500 | % Parent Remaining at 30 min [1]: +++ (61-100% +++)
3 | O=C(c1csc(-c2cn[nH]c2)c1)N1CCC(O)(c2ccc(Cl)cc2F)CC1 [AA-07] | ≤ 500 | % Parent Remaining at 30 min [1]: +++ (61-100% +++)
4 | O=C(c1csc(-c2cn[nH]c2)c1)N1CCC(O)(c2ccc(F)cc2F)CC1 [AA-09] | ≤ 500 | % Parent Remaining at 30 min [1]: +++ (61-100% +++)
5 | O=C(c1csc(-c2cn[nH]c2)c1)N1CCC(O)(c2ccccc2O)CC1 [AA-10] | 1000 to 10000 | –
6 | O=C(c1csc(-c2cn[nH]c2)c1)N1CCC(O)(c2ccc(Cl)c(Cl)c2)CC1 [AA-11] | ≤ 500 | –
7 | O=C(c1csc(-c2cn[nH]c2)c1)N1CCC(O)(c2ccc(F)cc2Cl)CC1 [AA-12] | ≤ 500 | IC50 (human 11β-HSD2): > 10 µM; IC50 (human 11β-HSD1 enzyme; [3]): 99 nM
8 | Cc1ccccc1C1(O)CCN(C(=O)c2csc(-c3cn[nH]c3)c2)CC1 [AA-13] | ≤ 500 | –
9 | O=C(c1csc(-c2cn[nH]c2)c1)N1CCC(O)(c2ccccc2C(F)(F)F)CC1 [AA-14] | ≤ 500 | –
10 | COC1(c2ccccc2)CCN(C(=O)c2csc(-c3cn[nH]c3)c2)CC1 [AA-15] | ≤ 500 | IC50 (human 11β-HSD2): > 10 µM; % Parent Remaining at 30 min [1]: ++ (31-60% ++); IC50 (human 11β-HSD1 enzyme; [3]): 110 nM
11 | CC1(c2ccccc2)CCN(C(=O)c2csc(-c3cn[nH]c3)c2)CC1 [AA-16] | ≤ 500 | % Parent Remaining at 30 min [1]: + (0-30% +)
12 | O=C(c1csc(-c2cn[nH]c2)c1)N1CCC(CO)(c2ccccc2)CC1 [AA-19] | 1000 to 10000 | –
13 | N#CC1(c2ccccc2)CCN(C(=O)c2csc(-c3cn[nH]c3)c2)CC1 [AA-20] | – | IC50 (human 11β-HSD1 enzyme): 1000 to 10000 nM
14 | O=C(c1csc(-c2cn[nH]c2)c1)N1CCC(O)(c2cccc(Cl)c2Cl)CC1 [AA-21] | ≤ 500 | –
15 | O=C(c1csc(-c2cn[nH]c2)c1)N1CCC(O)(c2c(F)cccc2Cl)CC1 [AA-23] | ≤ 500 | –
16 | O=C(c1csc(-c2cn[nH]c2)c1)N1CCC(O)(c2ccc(Cl)cc2Cl)CC1 [AA-24] | ≤ 500 | –
17 | COc1ccccc1C1(O)CC2CCC(C1)N2C(=O)c1csc(-c2cn[nH]c2)c1 (stereo not drawn) [AA-25] | ≤ 500 | –
18 | O=C(c1csc(-c2cn[nH]c2)c1)N1CCC(O)(c2cc(F)ccc2Cl)CC1 [AA-26] | ≤ 500 | –
19 | O=C(c1csc(-c2cn[nH]c2)c1)N1CCC(O)(c2c(Cl)cccc2Cl)CC1 [AA-27] | ≤ 500 | –
20 | O=C(c1csc(-c2cn[nH]c2)c1)N1CCC(O)(c2c(F)cccc2F)CC1 [AA-28] | ≤ 500 | –
21 | Cc1n[nH]cc1-c1cc(C(=O)N2CCC(O)(c3ccccc3Cl)CC2)cs1 [AA-29] | ≤ 500 | –
